Results published in BindingDB's records for doi:10.1021/jm034065z (Pfizer, 2003).

Molecular target: Aldo-keto reductase family 1 member B1 (Homo sapiens, UniProt P15121)
Assay: In Vitro Aldose Reductase Inhibition Assay
Conditions: pH 7; 24 °C
Protocol: The activity of the enzyme was determined spectrophotometrically by monitoring the change in absorbance at 340 nm, which is due to the disappearance of NADPH. Inhibition by test compound was measured as the percentage decrease in the rate of NADPH oxidation as compared to a sample without test compound. The determination of the IC50 values was performed by using linear regression analysis of the log dose response curve.

Compound | IC50
O=c1ccc(S(=O)(=O)c2cc3ccccc3o2)n[nH]1 | 0.15 µM
O=c1ccc(S(=O)(=O)c2cc3cc(Cl)ccc3o2)n[nH]1 | 0.025 µM
